Reference: paper PMC5779714, “Metallochaperone UreG serves as a new target for design of urease inhibitor: A novel strategy for development of antimicrobials” (PLoS Biology, 2018)
Values joined by “and” are separate entries in the source; they are usually repeats but may differ in a detail not shown here. Identical values can stand only once. Like-named read-outs stand apart in the source and are kept apart here.

Tests used:
urease [1] = experiment: Phenol-hypochlorite urease assay, lysate of E. coli with urease gene cluster excluding ureG (pHP8080ΔG) supplemented with metal-treated UreG
UreG [2] = target: T1, UreG (Helicobacter pylori, UniProt Q09066); experiment: biochemical; type: biochemical, H. pylori
Description: (§1) A Malachite Green Phosphate Assay Kit (Abcam) was utilized to quantify the hydrolysis of GTP by UreG under various conditions. […] GTPase activity of UreG was triggered through the addition of 10 mM KHCO3, after which the reaction was incubated at 37°C for 30 min; then, the free phosphate from hydrolysis of GTP was determined. […] To eliminate the potential effect of small compounds on malachite green assay, the assay included a subtraction of the absorbance of reaction with the same amounts of compounds but without UreG enzyme for each reading.

urease [3] = tested on: urease
urease [4] = tested on: urease; remark: listed apart in the source
Target sequence in this assay (P17088 whole entry): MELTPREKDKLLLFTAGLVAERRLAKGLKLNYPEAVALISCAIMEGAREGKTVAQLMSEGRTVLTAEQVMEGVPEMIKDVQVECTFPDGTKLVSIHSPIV
Target sequence in this assay (P17087 whole entry, further chain): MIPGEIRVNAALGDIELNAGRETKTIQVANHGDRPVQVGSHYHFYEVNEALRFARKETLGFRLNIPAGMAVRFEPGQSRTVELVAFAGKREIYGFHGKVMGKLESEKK
Target sequence in this assay (P17086 whole entry, further chain): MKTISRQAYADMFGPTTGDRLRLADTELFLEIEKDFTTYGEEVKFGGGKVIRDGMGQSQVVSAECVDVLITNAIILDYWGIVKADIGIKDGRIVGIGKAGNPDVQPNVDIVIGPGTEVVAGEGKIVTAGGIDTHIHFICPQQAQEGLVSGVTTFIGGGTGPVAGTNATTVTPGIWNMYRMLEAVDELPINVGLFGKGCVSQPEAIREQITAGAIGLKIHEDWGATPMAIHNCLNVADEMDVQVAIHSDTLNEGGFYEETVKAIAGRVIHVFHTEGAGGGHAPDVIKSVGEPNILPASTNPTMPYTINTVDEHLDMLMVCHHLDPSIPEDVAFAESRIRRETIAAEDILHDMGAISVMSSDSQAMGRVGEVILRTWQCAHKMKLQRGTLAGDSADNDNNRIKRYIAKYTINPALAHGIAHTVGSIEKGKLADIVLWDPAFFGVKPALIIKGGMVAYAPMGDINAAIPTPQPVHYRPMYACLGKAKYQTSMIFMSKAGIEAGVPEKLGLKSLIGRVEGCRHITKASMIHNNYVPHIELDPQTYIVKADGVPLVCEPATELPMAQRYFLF

H. pylori urease [5] = target: T2, H. pylori urease (Helicobacter pylori, UniProt P14916+P69996); type: biochemical; set-up: endogenous in cells; host or cells: H. pylori strain 26695 or a clinical isolate
Target sequence in this assay (P69996 whole entry): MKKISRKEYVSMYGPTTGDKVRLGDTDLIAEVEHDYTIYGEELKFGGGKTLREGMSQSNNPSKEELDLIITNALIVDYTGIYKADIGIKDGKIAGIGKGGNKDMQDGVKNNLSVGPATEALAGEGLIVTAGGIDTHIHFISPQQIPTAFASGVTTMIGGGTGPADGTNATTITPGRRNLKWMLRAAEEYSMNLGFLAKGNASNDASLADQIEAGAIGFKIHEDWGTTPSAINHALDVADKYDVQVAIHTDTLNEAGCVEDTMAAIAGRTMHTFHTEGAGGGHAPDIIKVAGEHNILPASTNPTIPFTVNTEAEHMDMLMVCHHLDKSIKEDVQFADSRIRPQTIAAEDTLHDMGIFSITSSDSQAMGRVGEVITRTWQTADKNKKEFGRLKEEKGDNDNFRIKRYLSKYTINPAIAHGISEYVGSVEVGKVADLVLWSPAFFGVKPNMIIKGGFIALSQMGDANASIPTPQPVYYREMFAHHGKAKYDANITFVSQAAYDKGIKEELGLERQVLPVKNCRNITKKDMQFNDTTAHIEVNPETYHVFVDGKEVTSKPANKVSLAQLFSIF
Target sequence in this assay (P14916 whole entry): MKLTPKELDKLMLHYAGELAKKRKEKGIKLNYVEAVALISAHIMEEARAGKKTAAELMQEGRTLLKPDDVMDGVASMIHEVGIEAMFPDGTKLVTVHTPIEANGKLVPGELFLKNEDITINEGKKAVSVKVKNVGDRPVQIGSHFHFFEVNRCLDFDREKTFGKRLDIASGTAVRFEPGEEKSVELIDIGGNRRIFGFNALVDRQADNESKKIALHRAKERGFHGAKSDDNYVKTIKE

urease [6] = target: T3, urease (Proteus mirabilis, UniProt P17086+P17087+P17088); type: biochemical
T3 construct: endogenous in cells

urease [7] = tested on: urease; remark: listed apart in the source
[8] = tested on: AGS cells exposed to H. pylori; experiment: Cell infection model: AGS cells exposed to H. pylori pre-cultured with inhibitors; type: cell-based, human; conditions: H. pylori pre-cultured with 10 μM inhibitor 24 h; MOI 20; 24 h infection; Hp alone 28.8%
H. pylori urease [9] = target: T2, H. pylori urease; experiment: cell-based; type: cell-based
Target sequence in this assay (P14916 whole entry, looked up): as the sequence (P14916 whole entry) above
Target sequence in this assay (P69996 whole entry, looked up): as the sequence (P69996 whole entry) above

[10] = tested on: AGS cells with H. pylori infection; experiment: AGS cells with H. pylori infection, inhibitors administrated to the AGS cells (S20 Fig); type: cell-based, human; conditions: 10 μM administrated to AGS cells with H. pylori infection
Description: As expected, low viability of AGS with the supplement of cmpd4 and cmpd8 was observed due to the toxicity of small compounds to mammalian cells. […] (PNG) Click here for additional data file.

urease [11] = target: T4, urease (Pseudomonas aeruginosa, UniProt Q9HUU5+Q9HUU6+Q9HUU8); experiment: Urease activity of extracted P. aeruginosa urease (in vitro); type: biochemical
T4 construct: endogenous in cells

urease [12] = tested on: urease; remark: listed apart in the source
urease [13] = tested on: urease; remark: listed apart in the source
urease [14] = tested on: urease; remark: listed apart in the source
Target sequence in this assay (Q9HUU5 whole entry): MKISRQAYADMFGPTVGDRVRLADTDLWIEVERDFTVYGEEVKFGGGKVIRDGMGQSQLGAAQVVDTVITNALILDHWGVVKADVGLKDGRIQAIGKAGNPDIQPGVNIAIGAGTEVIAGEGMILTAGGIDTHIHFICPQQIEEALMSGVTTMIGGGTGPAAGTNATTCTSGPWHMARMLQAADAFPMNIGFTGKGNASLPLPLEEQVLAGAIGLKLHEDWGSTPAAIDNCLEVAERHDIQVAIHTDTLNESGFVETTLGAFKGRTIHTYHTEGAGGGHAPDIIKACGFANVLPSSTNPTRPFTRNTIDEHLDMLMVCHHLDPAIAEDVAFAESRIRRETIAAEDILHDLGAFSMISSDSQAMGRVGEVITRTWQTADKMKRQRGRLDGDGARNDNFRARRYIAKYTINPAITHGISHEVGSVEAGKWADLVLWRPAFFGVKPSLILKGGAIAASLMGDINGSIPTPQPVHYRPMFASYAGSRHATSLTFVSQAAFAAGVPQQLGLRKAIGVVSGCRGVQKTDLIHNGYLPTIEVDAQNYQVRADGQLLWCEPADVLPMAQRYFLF
Target sequence in this assay (Q9HUU6 whole entry, further chain): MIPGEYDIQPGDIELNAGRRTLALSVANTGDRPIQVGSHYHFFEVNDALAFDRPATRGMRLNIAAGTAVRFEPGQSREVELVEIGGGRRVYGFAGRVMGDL
Target sequence in this assay (Q9HUU8 whole entry, further chain): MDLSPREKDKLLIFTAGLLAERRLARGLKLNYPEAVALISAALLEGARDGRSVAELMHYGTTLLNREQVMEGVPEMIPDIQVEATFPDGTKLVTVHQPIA

urease [15] = tested on: urease; remark: listed apart in the source
H. pylori = experiment: Growth of H. pylori in neutral and acidic brucella broth (OD600); type: cell-based
UreG [16] = target: T1, UreG
Description: as §1
(PNG) Click here for additional data file.

urease [17] = tested on: urease; remark: listed apart in the source
[18] = set-up: method as in PMID 22179820; conditions: cited from earlier work
[19] = target: urease from jack bean, P. mirabilis, and K. aerogenes; conditions: competitive inhibitor; cited from earlier work
[20] = target: the molecule itself; experiment: SEC; gel filtration of apo-UreE alone, with or without three molar equivalents of Bi(III) (little effect on the dimer)
[21] = target: the molecule itself; experiment: SEC; Superdex 200 10/300 GL; Ni-loaded UreG (UreG with NiSO4 1x, GTP 10x, MgSO4 1 mM) with 1 mM KHCO3; run with or without two molar equivalents of Bi(III) (as BiNTA), which lowered the dimer peak and gave a high molecular weight oligomer
[22] = increasing amounts of CBS during bacterial growth

T4 sequence (Q9HUU6 whole entry): as the sequence (Q9HUU6 whole entry, further chain) above
T4 sequence (Q9HUU5 whole entry): as the sequence (Q9HUU5 whole entry) above
T4 sequence (Q9HUU8 whole entry): as the sequence (Q9HUU8 whole entry, further chain) above
T3 sequence (P17087 whole entry): as the sequence (P17087 whole entry, further chain) above
T3 sequence (P17088 whole entry): as the sequence (P17088 whole entry) above
T3 sequence (P17086 whole entry): as the sequence (P17086 whole entry, further chain) above

[Bi+3] [Bi(III), reference compound]
Normalized urease activity(%) (urease [1]; Ni-UreG+Bix1, incubation 40 min): 47.6%
Normalized urease activity(%) (urease [1]; Ni-UreG+Bix2, incubation 40 min): 9.3%
Normalized urease activity(%) (urease [1]; Ni-UreG+Bix3, incubation 40 min): 5.8%
Normalized GTPase activity(%) (UreG [2]; Ni-UreG+Bix1): 29.0%
Normalized GTPase activity(%) (UreG [2]; Ni-UreG+Bix2): 0.8%
Normalized GTPase activity(%) (UreG [2]; Ni-UreG+Bix3): 1.7%
inhibition of GTPase enzyme activity (UreG [2]; further addition of Bi(III) to Ni-UreG): complete inhibition

colloidal bismuth subcitrate [CBS]
Normalized urease activity(%) (in vitro) (urease [3]; CBS 25.0 μM): 109.8%
Normalized urease activity(%) (in vitro) (urease [3]; CBS 50.0 μM): 113.4%
Normalized urease activity(%) (in vitro) (urease [3]; CBS 100.0 μM): 105.1%
Normalized urease activity(%) (in vitro) (urease [3]; CBS 200.0 μM): 103.9%
Normalized urease activity(%) (urease [4]; log(CBS[μM]) 1.29073): 42.0322%
Normalized urease activity(%) (urease [4]; log(CBS[μM]) 1.59176): 39.1227%
Normalized urease activity(%) (urease [4]; log(CBS[μM]) 1.89279): 25.3581%
Normalized urease activity(%) (urease [4]; log(CBS[μM]) 2.19382): 25.0224%
Normalized urease activity(%) (in vitro) (H. pylori urease [5]; CBS 2.0 μM): 102.1%
Normalized urease activity(%) (in vitro) (H. pylori urease [5]; CBS 5.0 μM): 93.2%
Normalized urease activity(%) (in vitro) (H. pylori urease [5]; CBS 10.0 μM): 103.8%
Normalized urease activity(%) (in vitro) (H. pylori urease [5]; CBS 20.0 μM): 86.7%
Normalized urease activity(%) (in vitro) (H. pylori urease [5]; CBS 30.0 μM): 92.9%
Normalized urease activity(%) (in vitro) (H. pylori urease [5]; CBS 50.0 μM): 109.1%
Normalized urease activity(%) (in vitro) (H. pylori urease [5]; CBS 100.0 μM): 102.9%
Normalized urease activity(%) (in vitro) (H. pylori urease [5]; CBS 200.0 μM): 94.9%
inhibitory effect on extracted H. pylori urease (H. pylori urease [5]; CBS up to 400 μM): little inhibitory effect
Normalized urease activity(%) (in vitro) (urease [6]; CBS 2.0 μM): 105.5%
Normalized urease activity(%) (in vitro) (urease [6]; CBS 5.0 μM): 122.1%
Normalized urease activity(%) (in vitro) (urease [6]; CBS 10.0 μM): 103.7%
Normalized urease activity(%) (in vitro) (urease [6]; CBS 20.0 μM): 121.2%
Normalized urease activity(%) (in vitro) (urease [6]; CBS 50.0 μM): 96.7%
Normalized urease activity(%) (in vitro) (urease [6]; CBS 100.0 μM): 105.5%
Normalized urease activity(%) (in vitro) (urease [6]; CBS 200.0 μM): 111.5%
Normalized urease activity(%) (in vitro) (urease [7]; CBS 2.0 μM): 87.7%
Normalized urease activity(%) (in vitro) (urease [7]; CBS 5.0 μM): 84.1%
Normalized urease activity(%) (in vitro) (urease [7]; CBS 10.0 μM): 87.2%
Normalized urease activity(%) (in vitro) (urease [7]; CBS 50.0 μM): 91.4%
Normalized urease activity(%) (in vitro) (urease [7]; CBS 100.0 μM): 87.4%
Normalized urease activity(%) (in vitro) (urease [7]; CBS 200.0 μM): 86.8%
Normalized cell survival (%) [8]: 65.8% ± 9.9% and 65.7658%
Normalized urease activity(%) (in vivo) (H. pylori urease [9]; CBS 2.0 μM): 89.4%
Normalized urease activity(%) (in vivo) (H. pylori urease [9]; CBS 5.0 μM): 57.6%
Normalized urease activity(%) (in vivo) (H. pylori urease [9]; CBS 10.0 μM): 35.6%
Normalized urease activity(%) (in vivo) (H. pylori urease [9]; CBS 20.0 μM): 10.2%
drop in urease activity (H. pylori urease [9]; CBS 20 μM in culture medium): ca. 90%
Normalized urease activity(%) (H. pylori urease [9]; log(CBS[μM]) 0): 94.7245%
Normalized urease activity(%) (H. pylori urease [9]; log(CBS[μM]) 0.30103): 89.449%
Normalized urease activity(%) (H. pylori urease [9]; log(CBS[μM]) 0.69897): 57.604%
Normalized urease activity(%) (H. pylori urease [9]; log(CBS[μM]) 0.845098): 46.6188%
Normalized urease activity(%) (H. pylori urease [9]; log(CBS[μM]) 1): 35.6336%
Normalized urease activity(%) (H. pylori urease [9]; log(CBS[μM]) 1.17609): 22.938%
Normalized urease activity(%) (H. pylori urease [9]; log(CBS[μM]) 1.30103): 10.2424%
Normalized urease activity(%) (H. pylori urease [9]; log(CBS[μM]) 1.39794): 10.165%
Normalized urease activity(%) (H. pylori urease [9]; log(CBS[μM]) 1.47712): 10.0876%
Ammonia in medium [10]: 0.6839 mM
Normalized cell survival (%) [10]: 78.3784%
Normalized urease activity(%) (in vitro) (urease [11]; CBS 2.0 μM): 102.2%
Normalized urease activity(%) (in vitro) (urease [11]; CBS 5.0 μM): 93.5%
Normalized urease activity(%) (in vitro) (urease [11]; CBS 10.0 μM): 100.7%
Normalized urease activity(%) (in vitro) (urease [11]; CBS 20.0 μM): 99.1%
Normalized urease activity(%) (in vitro) (urease [11]; CBS 50.0 μM): 95.8%
Normalized urease activity(%) (in vitro) (urease [11]; CBS 100.0 μM): 101.3%
Normalized urease activity(%) (in vitro) (urease [11]; CBS 200.0 μM): 99.8%
Normalized urease activity(%) (in vitro) (urease [12]; CBS 2.0 μM): 117.5%
Normalized urease activity(%) (in vitro) (urease [12]; CBS 5.0 μM): 100.8%
Normalized urease activity(%) (in vitro) (urease [12]; CBS 10.0 μM): 95.4%
Normalized urease activity(%) (in vitro) (urease [12]; CBS 20.0 μM): 96.5%
Normalized urease activity(%) (in vitro) (urease [12]; CBS 50.0 μM): 100.0%
Normalized urease activity(%) (in vitro) (urease [12]; CBS 100.0 μM): 106.8%
Normalized urease activity(%) (in vitro) (urease [12]; CBS 200.0 μM): 98.8%
Normalized urease activity(%) (in vitro) (urease [13]; CBS 25.0 μM): 111.2%
Normalized urease activity(%) (in vitro) (urease [13]; CBS 50.0 μM): 127.8%
Normalized urease activity(%) (in vitro) (urease [13]; CBS 100.0 μM): 125.1%
Normalized urease activity(%) (in vitro) (urease [13]; CBS 200.0 μM): 113.5%
Normalized urease activity(%) (urease [14]; log(CBS[μM]) 0.69897): 76.4151%
Normalized urease activity(%) (urease [14]; log(CBS[μM]) 1): 79.2453%
Normalized urease activity(%) (urease [14]; log(CBS[μM]) 1.30103): 68.1604%
Normalized urease activity(%) (urease [14]; log(CBS[μM]) 1.79588): 36.5566%
Normalized urease activity(%) (urease [15]; CBS 20 μM): 63.4%
Normalized urease activity(%) (urease [15]; CBS 50 μM): 37.9%
Normalized urease activity(%) (urease [15]; CBS 100 μM): 37.9%
Normalized urease activity(%) (urease [15]; CBS 200 μM): 25.6%
ureolytic activity compared with that without CBS treatment (urease [15]; [22]): approximately 20%
OD600(pH5) (H. pylori; acidic brucella broth pH 5.0, 24 h, control 0.93): 0.23 and 0.239
OD600 (pH7) (H. pylori; neutral medium, 24 h, control 0.18): 0.127
Normalized GTPase activity(%) (UreG [16]; CBS 20 μM): 50.4%
Normalized GTPase activity(%) (UreG [16]; CBS 50 μM): 22.6%
Normalized GTPase activity(%) (UreG [16]; CBS 100 μM): 35.8%
Normalized GTPase activity(%) (UreG [16]; CBS 200 μM): 20.4%
GTPase activity compared with that without CBS treatment (UreG [16]; [22]): approximately 20%
Normalized urease activity(%) (in vivo) (urease [17]; CBS 1.5 μM): 92.5%
Normalized urease activity(%) (in vivo) (urease [17]; CBS 3.0 μM): 74.5%
Normalized urease activity(%) (in vivo) (urease [17]; CBS 6.0 μM): 62.3%
Normalized urease activity(%) (in vivo) (urease [17]; CBS 12.0 μM): 64.2%
Normalized urease activity(%) (in vivo) (urease [17]; CBS 25.0 μM): 41.5%
Normalized urease activity(%) (urease [17]; log(CBS[μM]) 0.176091): 92.4528%
Normalized urease activity(%) (urease [17]; log(CBS[μM]) 0.477121): 74.5283%
Normalized urease activity(%) (urease [17]; log(CBS[μM]) 1.39794): 41.5094%
Normalized urease activity(%) (urease [17]; log(CBS[μM]) 3): 16.0377%
Normalized urease activity(%) (urease [17]; log(CBS[μM]) 3.30103): 13.2075%
Normalized urease activity(%) (urease [17]; log(CBS[μM]) 3.60206): 20.7547%

O=C([O-])CN(CC(=O)[O-])CC(=O)[O-].[Bi+3] [BiNTA, Bi nitrilotriacetic acid]
log Ka of Bi-NTA [18]: 17.55

OB(O)O [boric acid]
Ki [19]: mM levels

B1: Helicobacter pylori urease accessory protein UreE (natural protein)
chain: MIIERLVGNLRDLNPLDFSVDHVDLEWFETRKKIARFKTRQGKDIAIRLKDAPKLGLSQGDILFKEEKEIIAVNILDSEVIHIQAKSVAEVAKICYEIGNRHAALYYGESQFEFKTPFEKPTLALLEKLGVQNRVLSSKLDSKERLTVSMPHSEPNFKVSLASDFKVVVK
notes: also called apo-UreE
stoichiometry N [20]: 2

B2: Helicobacter pylori urease accessory protein UreG (natural protein)
chain: MVKIGVCGPVGSGKTALIEALTRHMSKDYDMAVITNDIYTKEDAEFMCKNSVMPRERIIGVETGGCPHTAIREDASMNLEAVEEMHGRFPNLELLLIESGGDNLSATFNPELADFTIFVIDVAEGDKIPRKGGPGITRSDLLVINKIDLAPYVGADLKVMERDSKKMRGEKPFIFTNIRAKEGLDDVIAWIKRNALLED
notes: also called HpUreG; apo-UreG; source: E. coli BL21(DE3), purified (HisTrap Ni-NTA, thrombin cleavage, EDTA, Superdex 75)
stoichiometry N [21]: 2
